# Results published in ChEMBL document CHEMBL4265942, “Four new antitumor metabolites isolated from a mutant 3-f-31 strain derived from Penicillium purpurogenum G59” (Eur J Med Chem, 2018).
# Assays:
# [1] = tested on: HCT-116; experiment: Down regulation of HSP90 expression in human HCT116 cells after 48 hrs by Western blot analysis; format: functional, cell-based
# [2] = tested on: HT-29; experiment: Antiproliferative activity against human HT-29 cells assessed as inhibition of cell growth after 72 hrs by sulforhodamine B assay; format: functional, cell-based; conditions: HT-29, 72 h
# [3] = tested on: HCT-116; experiment: Down regulation of survivin expression in human HCT116 cells after 48 hrs by Western blot analysis; format: functional, cell-based
# [4] = tested on: A549; experiment: Antiproliferative activity against human A549 cells assessed as inhibition of cell growth after 72 hrs by sulforhodamine B assay; format: functional, cell-based; conditions: A549, 72 h
# [5] = tested on: HL-60; experiment: Antiproliferative activity against human HL60 cells assessed as inhibition of cell growth after 72 hrs by MTT assay; format: functional, cell-based; conditions: HL-60, 72 h
# [6] = tested on: HeLa; experiment: Antiproliferative activity against human HeLa cells assessed as inhibition of cell growth after 72 hrs by sulforhodamine B assay; format: functional, cell-based
# [7] = tested on: Mus musculus; experiment: Toxicity in BALB/c nu/nu mouse xenografted with human HCT116 cells assessed as spleen index at 20 mg/kg administered peritoneally once daily for 14 days measured 24 hrs post last dose (reference value: 0.41 +/- 0.08%); format: organism-based; conditions: in vivo, ip
# [8] = tested on: PANC-1; experiment: Antiproliferative activity against human PANC1 cells assessed as inhibition of cell growth after 72 hrs by sulforhodamine B assay; format: functional, cell-based; conditions: PANC-1, 72 h
# [9] = tested on: MCF7; experiment: Antiproliferative activity against human MCF7 cells assessed as inhibition of cell growth after 72 hrs by sulforhodamine B assay; format: functional, cell-based; conditions: MCF7, 72 h
# [10] = tested on: NCI-H1975; experiment: Antiproliferative activity against human NCI-H1975 cells assessed as inhibition of cell growth after 72 hrs by sulforhodamine B assay; format: functional, cell-based; conditions: NCI-H1975, 72 h
# [11] = tested on: Mus musculus; experiment: Toxicity in BALB/c nu/nu mouse xenografted with human HCT116 cells assessed as spleen index at 5 mg/kg administered peritoneally once daily for 14 days measured 24 hrs post last dose (reference value: 0.41 +/- 0.08%); format: organism-based; conditions: in vivo, ip
# [12] = tested on: HCT-116; experiment: Down regulation of Raf1 expression in human HCT116 cells after 48 hrs by Western blot analysis; format: functional, cell-based
# [13] = tested on: HCT-116; experiment: Down regulation of AKT expression in human HCT116 cells after 48 hrs by Western blot analysis; format: functional, cell-based
# [14] = tested on: HCT-116; experiment: Antitumor activity against human HCT116 cells xenografted in BALB/c nu/nu mouse assessed as tumor growth inhibition at 20 mg/kg administered peritoneally once daily for 14 days measured 24 hrs post last dose relative to control; format: functional; conditions: read-out: TGI
# [15] = tested on: BXPC-3; experiment: Antiproliferative activity against human BxPC3 cells assessed as inhibition of cell growth after 72 hrs by sulforhodamine B assay; format: functional, cell-based; conditions: BXPC-3, 72 h
# [16] = tested on: L929; experiment: Cytotoxicity against mouse L929 cells assessed as inhibition of cell growth after 72 hrs by MTT assay; format: cell-based; conditions: L929, 72 h
# [17] = tested on: HCT-116; experiment: Antitumor activity against human HCT116 cells xenografted in BALB/c nu/nu mouse assessed as tumor growth inhibition at 10 mg/kg administered peritoneally once daily for 14 days measured 24 hrs post last dose relative to control; format: functional; conditions: read-out: TGI
# [18] = tested on: LS180; experiment: Antiproliferative activity against human LS180 cells assessed as inhibition of cell growth after 72 hrs by sulforhodamine B assay; format: functional, cell-based; conditions: LS180, 72 h
# [19] = tested on: HCT-116; experiment: Antiproliferative activity against human HCT116 cells assessed as inhibition of cell growth after 72 hrs by sulforhodamine B assay; format: functional, cell-based; conditions: HCT-116, 72 h
# [20] = tested on: HepG2; experiment: Antiproliferative activity against human HepG2 cells assessed as inhibition of cell growth after 72 hrs by sulforhodamine B assay; format: functional, cell-based; conditions: HepG2, 72 h
# [21] = tested on: HCT-116; experiment: Down regulation of phosphorylated STAT3 expression in human HCT116 cells after 48 hrs by Western blot analysis; format: functional, cell-based
# [22] = tested on: SW480; experiment: Antiproliferative activity against human SW480 cells assessed as inhibition of cell growth after 72 hrs by sulforhodamine B assay; format: functional, cell-based; conditions: SW480, 72 h
# [23] = tested on: HCT-116; experiment: Antitumor activity against human HCT116 cells xenografted in BALB/c nu/nu mouse assessed as tumor growth inhibition at 5 mg/kg administered peritoneally once daily for 14 days measured 24 hrs post last dose relative to control; format: functional; conditions: read-out: TGI
# [24] = tested on: HCT-116; experiment: Down regulation of STAT3 expression in human HCT116 cells after 48 hrs by Western blot analysis; format: functional, cell-based
# [25] = tested on: Mus musculus; experiment: Toxicity in BALB/c nu/nu mouse xenografted with human HCT116 cells assessed as spleen index at 10 mg/kg administered peritoneally once daily for 14 days measured 24 hrs post last dose (reference value: 0.41 +/- 0.08%); format: organism-based; conditions: in vivo, ip
# [26] = tested on: K562; experiment: Antiproliferative activity against human K562 cells assessed as inhibition of cell growth after 72 hrs by MTT assay; format: functional, cell-based; conditions: K562, 72 h
# [27] = tested on: HCT-116; experiment: Down regulation of ERK1/2 expression in human HCT116 cells after 48 hrs by Western blot analysis; format: functional, cell-based
# [28] = tested on: PC-3; experiment: Antiproliferative activity against human PC3 cells assessed as inhibition of cell growth after 72 hrs by sulforhodamine B assay; format: functional, cell-based; conditions: PC-3, 72 h
structure (smiles),measurement,setting,value
CCCCCC[C@@H](C)C[C@@H](C)/C=C/C(=O)N[C@H]1C[C@@]2(O[C@H]1O)[C@@H]1O[C@@H]1[C@](O)(CC(C)=O)[C@@H]1O[C@@H]12,Activity,[1],Dose-dependent effect
same,IC50,[2],8.4 µM
same,Activity,[3],Dose-dependent effect
same,IC50,[4],10.9 µM
same,IC50,[5],4.55 µM
same,IC50,[6],5.09 µM
same,Activity_index,[7],0.48
same,IC50,[8],4.04 µM
same,IC50,[9],3.73 µM
same,IC50,[10],3.75 µM
same,Activity_index,[11],0.95
same,Activity,[12],Dose-dependent effect
same,Activity,[13],Dose-dependent effect
same,inhibition in vivo at 20 mg/kg,[14],37.9%
same,IC50,[15],5.96 µM
same,IC50,[16],3.8 µM
same,inhibition in vivo at 10 mg/kg,[17],37.8%
same,IC50,[18],17.4 µM
same,IC50,[19],1.91 µM
same,IC50,[20],5.21 µM
same,Activity,[21],Dose-dependent effect
same,IC50,[22],4.64 µM
same,inhibition in vivo at 5 mg/kg,[23],51.6%
same,Activity,[24],Dose-dependent effect
same,Activity_index,[25],0.37
same,IC50,[26],4.2 µM
same,Activity,[27],Dose-dependent effect
same,IC50,[28],8.7 µM
